PMC6272192, “Synthesis and Biological Evaluation of N-Alkyl-3-(alkylamino)-pyrazine-2-carboxamides” (Molecules, 2015)
Converted amounts (≈) assume the structure as drawn. Where two headings read alike, the source gives them in different places.

Key:
[1] = test system: photosystem 2 photosynthetic electron transport (PET) in spinach chloroplasts; design: method as in doi:10.3139/113.110079; settings: literature surfactants; read-out: IC50 related to PET inhibition; cited from earlier work
Vero cells = experiment: in vitro cytotoxicity assay (MCC); type: cell-based, African Green Monkey; settings: highest tested concentration 100 µmol/L
[2] = test system: photosystem 2 photosynthetic electron transport (PET) in spinach chloroplasts; experiment: inhibition of photosynthetic electron transport (PET) in spinach chloroplasts (Hill reaction, DCPIP); type: biochemical, Spinacia oleracea L.; settings: for IC50 / PET-inhibiting activity (in words): spinach chloroplasts
Procedure: Chloroplasts were prepared from spinach (Spinacia oleracea L.) according to Masarovicova and Kralova. The inhibition of photosynthetic electron transport (PET) in spinach chloroplasts was determined spectrophotometrically (Genesys 6, Thermo Electron Scientific Instruments, Madison, WI, USA), using an artificial electron acceptor 2,6-dichlorophenol-indophenol (DCPIP) according to Kralova et al., and the rate of photosynthetic electron transport (PET) was monitored as a photoreduction of DCPIP. The measurements were carried out in phosphate buffer (0.02 mol/L, pH 7.2) containing sucrose (0.4 mol/L), MgCl2 (0.005 mol/L) and NaCl (0.015 mol/L). The chlorophyll content was 30 mg/L in these experiments and the samples were irradiated (~100 W/m^2 with 10 cm distance) with a halogen lamp (250 W) using a 4 cm water filter to prevent warming of the samples (suspension temperature 22 °C). The studied compounds were dissolved in DMSO due to their limited water solubility. […] The inhibitory efficiency of the studied compounds was expressed by IC50 values, i.e., by molar concentration of the compounds causing 50% PET inhibition relative to the untreated control.

[3] = determination of lipophilicity by HPLC (log k); settings: HPLC capacity factor, C18 column, MeOH 70% / H2O 30%
From the text: Instrumentation: Agilent Technologies 1200 SL liquid chromatograph with Diode-array Detector SL G1315C (Agilent Technologies Inc., Colorado Springs, CO, USA); pre-column ZORBAX XDB-C18 5 μm, 4 × 4 mm, Part No. 7995118-504 (Agilent Technologies Inc.) and column ZORBAX Eclipse XDB-C18 5 μm, 4.6 × 250 mm, Part No. 7995118-585 (Agilent Technologies Inc.). The separation process was controlled by Agilent ChemStation, version B.04.02 extended by spectral module (Agilent Technologies Inc.). Mobile phase consisted of MeOH (HPLC grade, 70%) and H2O (HPLC-Milli-Q Grade, 30%). Conditions: Flow rate 1.0 mL/min, sample injection volume 20 μL, column temperature 30 °C, detection wavelength 210 nm, monitor wavelength 270 nm. Retention times (tR) were measured in minutes. The dead time of the system (tD) was determined as the retention time of KI methanol solution. Capacity factors k for individual compounds were calculated according to the formula k = (tR − tD)/tD. Log k, calculated from the capacity factor k, is used as the lipophilicity index converted to log scale.

M. tuberculosis H37Rv [4] = experiment: in vitro antimycobacterial activity, microdilution panel method; type: cell-based, Mycobacterium tuberculosis; settings: for MIC: Mycobacterium tuberculosis
M. tuberculosis H37Rv [5] = settings: previously prepared 3-alkylaminopyrazine-2-carboxamides; cited from earlier work
[6] = test system: Trichophyton mentagrophytes; experiment: in vitro antifungal activity, microdilution broth method; type: cell-based; settings: for MIC: Trichophyton mentagrophytes
Procedure: Antifungal evaluation was performed using microdilution broth method against 8 fungal strains (Candida albicans ATCC 44859, C. tropicalis 156, C. krusei E28, C. glabrata 20/I, Trichosporon asahii 1188, Aspergillus fumigates 231, Absidia corymbifera 272 and Trichophyton mentagrophytes 445). Compounds were dissolved in DMSO and diluted in a twofold manner with RPMI 1640 medium with glutamine buffered to pH 7.0 (3-morpholinopropane-1-sulfonic acid). […] Static incubation was performed in the dark and humid, at 35 °C for 24 and 48 h (respectively 72 and 120 h for Trichophyton mentagrophytes). The MIC was defined as 80% inhibition of control (50% IC for filament fungi). Drug-free controls were included. The standards were amphotericin B, voriconazole, nystatin and fluconazole.

[7] = test system: Staphylococcus epidermidis; experiment: in vitro antibacterial activity, microdilution broth method; type: cell-based
Procedure: Microdilution broth method. Antibacterial evaluation was performed against bacterial strains from Czech Collection of Microorganisms (Brno, Czech Republic) (Staphylococcus aureus CCM 4516/08, Escherichia coli CCM 4517, Pseudomonas aeruginosa CCM 1961) or clinical isolates from Department of Clinical Microbiology, University Hospital and Faculty of Medicine in Hradec Králové, Charles University in Prague, Czech Republic (Staphylococcus aureus H 5996/08-methicilin resistant (MRSA), Staphylococcus epidermidis H 6966/08, Enterococcus sp. J 14365/08, Klebsiella pneumoniae D 11750/08, Klebsiella pneumoniae J 14368/08-ESBL positive). All strains were subcultured on Mueller-Hinton agar (MHA) (Difco/Becton Dickinson, Detroit, MI, USA) at 35 °C and maintained on the same medium at 4 °C. The compounds were dissolved in DMSO, and the antibacterial activity was determined in Mueller-Hinton liquid broth (Difco/Becton Dickinson), buffered to pH 7.0. Controls consisted of medium and DMSO alone. […] The standards were neomycin, bacitracin, penicillin G, ciprofloxacin and phenoxymethylpenicilin.

[8] = DCPIP photoreduction, read-out: IC50 (PET-inhibiting activity)
[9] = 336 h, Middlebrook 7H9, Alamar Blue after 14 days, read-out: MIC M. tuberculosis
[10] = Middlebrook 7H9, Alamar Blue after 14 days

## CN(C)CCNC(=O)C(=O)NCCN(C)C [N,N'-bis(2-dimethylaminoethyl)ethanediamide]
[1]
  IC50: 4000 µM

## CCCCCCCCNC(=O)c1nccnc1NCCCCCCCC [Compound 30, N-Octyl-3-(octylamino)pyrazine-2-carboxamide]
Vero cells
  minimum compound concentration (MCC) causing microscopically detectable alteration of normal cell morphology: 100 µmol/L
[2]; [8]
  IC50: 752 µM
[3]
  log k: 2.981
M. tuberculosis H37Rv [4]; [9]
  MIC: > 100 µg/mL

## CCCNC(=O)c1nccnc1NCCC [Compound 25, N-Propyl-3-(propylamino)pyrazine-2-carboxamide]
[2]; [8]
  IC50: 1300 µM
[3]
  log k: 0.600
M. tuberculosis H37Rv [4]; [9]
  MIC: > 100 µg/mL

## CCNC(=O)c1nccnc1Cl [Compound 2, 3-Chloro-N-ethylpyrazine-2-carboxamide]
[2]
  PET-inhibiting activity (in words): inactive
[3]
  log k: −0.591
M. tuberculosis H37Rv [4]; [9]
  MIC: > 100 µg/mL

## CCCCCCCCNc1nccnc1C(N)=O [3-octylaminopyrazine-2-carboxamide]
M. tuberculosis H37Rv [5]
  MIC: 50 µg/mL (≈ 200 µM)

## CCCCCNc1nccnc1C(=O)NCC [Compound 21, N-Ethyl-3-(pentylamino)pyrazine-2-carboxamide]
[6]
  MIC: 250 µM (≈ 59.1 µg/mL)
[2]; ratio to IC50 of 14
  IC50 (PET) fold higher than that of compound 14: 2.4 fold
[2]; [8]
  IC50: 301 µM
[3]
  log k: 0.855
M. tuberculosis H37Rv [4]; [10]
  MIC M. tuberculosis: 50 µg/mL (≈ 212 µM)
M. tuberculosis H37Rv [4]; [9]
  MIC: 50 µg/mL

## CCNC(=O)c1nccnc1NCC [Compound 18, N-Ethyl-3-(ethylamino)pyrazine-2-carboxamide]
[2]
  PET-inhibiting activity (in words): not active
[3]
  log k: 0.163
M. tuberculosis H37Rv [4]; [9]
  MIC: > 100 µg/mL

## CCCCNc1nccnc1C(=O)NC [Compound 12, 3-(Butylamino)-N-methylpyrazine-2-carboxamide]
[2]; [8]
  IC50: 523 µM
[3]
  log k: 0.401
M. tuberculosis H37Rv [4]; [9]
  MIC: 100 µg/mL

## CCCCCCNc1nccnc1C(N)=O [3-hexylamino-]
M. tuberculosis H37Rv [5]
  MIC: 50 µg/mL (≈ 225 µM)

## CCCCCCCNc1nccnc1C(=O)NC [Compound 15, 3-(Heptylamino)-N-methylpyrazine-2-carboxamide]
[6]
  MIC: 125 µM (≈ 31.3 µg/mL)
[2]; [8]
  IC50: 65 µM
[3]
  log k: 1.118
[7]
  MIC: 250 µM (≈ 62.6 µg/mL)
M. tuberculosis H37Rv [4]; [9]
  MIC: 25 µg/mL

## CCCCCCNC(=O)c1nccnc1Cl [Compound 6, 3-Chloro-N-hexylpyrazine-2-carboxamide]
[6]
  MIC: 250 µM (≈ 60.4 µg/mL)
[2]; [8]
  IC50: 1070 µM
[3]
  log k: 0.239
M. tuberculosis H37Rv [4]; [9]
  MIC: 100 µg/mL

## CNC(=O)c1nccnc1NC [Compound 9, N-Methyl-3-(methylamino)pyrazine-2-carboxamide]
[2]; [8]
  IC50: 5650 µM
[3]
  log k: −0.279
M. tuberculosis H37Rv [4]; [9]
  MIC: > 100 µg/mL

## NNC(=O)c1ccncc1 [INH, Isoniazid, reference compound]
M. tuberculosis H37Rv [4]; [10]
  MIC M. tuberculosis: 0.1 to 0.39 µg/mL
M. tuberculosis H37Rv [4]; [9]
  MIC: 0.1 to 0.39 µg/mL
M. tuberculosis H37Rv [4]; conversion of the μg/mL value, read-out: MIC M. tuberculosis in molar units
  MIC: 0.7 to 2.9 µM

## CCNc1nccnc1C(=O)NC [Compound 10, 3-(Ethylamino)-N-methylpyrazine-2-carboxamide]
[3]
  log k: −0.052
M. tuberculosis H37Rv [4]; [9]
  MIC: > 100 µg/mL

## CNC(=O)c1nccnc1Cl [Compound 1, 3-Chloro-N-methylpyrazine-2-carboxamide]
[2]
  PET-inhibiting activity (in words): inactive
[3]
  log k: −0.747
M. tuberculosis H37Rv [4]; [9]
  MIC: > 100 µg/mL

## CCCCCNC(=O)c1nccnc1Cl [Compound 5, 3-Chloro-N-pentylpyrazine-2-carboxamide]
[2]; [8]
  IC50: 1390 µM
[3]
  log k: 0.012
M. tuberculosis H37Rv [4]; [9]
  MIC: > 100 µg/mL

## CCCCNc1nccnc1C(=O)NCC [Compound 20, 3-(Butylamino)-N-ethylpyrazine-2-carboxamide]
[2]; [8]
  IC50: 1090 µM
[3]
  log k: 0.617
M. tuberculosis H37Rv [4]; [9]
  MIC: > 100 µg/mL

## CCCNC(=O)c1nccnc1Cl [Compound 3, 3-Chloro-N-propylpyrazine-2-carboxamide]
[2]
  PET-inhibiting activity (in words): inactive
[3]
  log k: −0.414
M. tuberculosis H37Rv [4]; [9]
  MIC: > 100 µg/mL

## CCCCNC(=O)c1nccnc1Cl [Compound 4, N-Butyl-3-chloropyrazine-2-carboxamide]
[2]; [8]
  IC50: 4010 µM
[3]
  log k: −0.209
M. tuberculosis H37Rv [4]; [9]
  MIC: > 100 µg/mL

## CCCCNC(=O)c1nccnc1NCCCC [Compound 26, N-Butyl-3-(butylamino)pyrazine-2-carboxamide]
[2]; [8]
  IC50: 202 µM
[3]
  log k: 1.077
M. tuberculosis H37Rv [4]; [9]
  MIC: 50 µg/mL

## CCCCCCCNC(=O)c1nccnc1NCCCCCCC [Compound 29, N-Heptyl-3-(heptylamino)pyrazine-2-carboxamide]
[2]; [8]
  IC50: 1120 µM
[3]
  log k: 2.503
M. tuberculosis H37Rv [4]; [9]
  MIC: > 100 µg/mL

## CCCCCCCCNC(=O)c1nccnc1Cl [Compound 8, 3-Chloro-N-octylpyrazine-2-carboxamide]
[6]
  MIC Trichophyton mentagrophytes: 62.5 µM (≈ 16.9 µg/mL)
  MIC: 62.5 µM (≈ 16.9 µg/mL)
[2]; [8]
  IC50: 55 µM
[3]
  log k: 0.702
M. tuberculosis H37Rv [4]; [9]
  MIC: 50 µg/mL

## CCCCCCCNc1nccnc1C(=O)NCC [Compound 23, N-Ethyl-3-(heptylamino)pyrazine-2-carboxamide]
[6]
  MIC: 125 µM (≈ 33 µg/mL)
[2]; [8]
  IC50: 48 µM
[3]
  log k: 1.337
[7]
  MIC: 250 µM (≈ 66.1 µg/mL)
M. tuberculosis H37Rv [4]; [9]
  MIC: 50 µg/mL

## CN(C)C(=O)Nc1ccc(Cl)c(Cl)c1 [DCMU, 3-(3,4-dichlorophenyl)-1,1-dimethylurea, reference compound]
[2]; [8]
  IC50: 2 µM
[2]; read-out: IC50 (PET inhibition, Hill reaction)
  IC50: ~1.9 µM

## CCCCCCCNC(=O)c1nccnc1Cl [Compound 7, 3-Chloro-N-heptylpyrazine-2-carboxamide]
[6]
  MIC: 125 µM (≈ 32 µg/mL)
[2]; [8]
  IC50: 256 µM
[3]
  log k: 0.470
M. tuberculosis H37Rv [4]; [9]
  MIC: 100 µg/mL

## CCCCCNc1nccnc1C(=O)NC [Compound 13, N-Methyl-3-(pentylamino)pyrazine-2-carboxamide]
[6]
  MIC: 250 µM (≈ 55.6 µg/mL)
[2]; [8]
  IC50: 544 µM
[3]
  log k: 0.638
M. tuberculosis H37Rv [4]; [9]
  MIC: 50 µg/mL

## CCNC(=O)c1nccnc1NC [Compound 17, N-Ethyl-3-(methylamino)pyrazine-2-carboxamide]
[2]
  PET-inhibiting activity (in words): not active
[3]
  log k: −0.063
M. tuberculosis H37Rv [4]; [9]
  MIC: > 100 µg/mL

## CCCCCCCCC[N+](C)(C)CCNC(=O)CCC(=O)NCC[N+](C)(C)CCCCCCCCC [3,8-diaza-4,7-dioxodecane-1,10-diylbis(nonyldimethyl)ammonium bromide]
[1]
  IC50: 1740 µM

## CCCCCCCNc1nccnc1C(N)=O [3-heptyamino-]
M. tuberculosis H37Rv [5]
  MIC: 50 µg/mL (≈ 212 µM)

## CCCCCCNc1nccnc1C(=O)NC [Compound 14, 3-(Hexylamino)-N-methylpyrazine-2-carboxamide]
[6]
  MIC: 250 µM (≈ 59.1 µg/mL)
[2]; [8]
  IC50: 125 µM
[3]
  log k: 0.876
M. tuberculosis H37Rv [4]; [10]
  MIC M. tuberculosis: 25 µg/mL (≈ 106 µM)
M. tuberculosis H37Rv [4]; [9]
  MIC: 25 µg/mL

## CCCCCCNC(=O)c1nccnc1NCCCCCC [Compound 28, N-Hexyl-3-(hexylamino)pyrazine-2-carboxamide]
Vero cells
  minimum compound concentration (MCC) causing microscopically detectable alteration of normal cell morphology: > 4 µmol/L
[2]; [8]
  IC50: 272 µM
[3]
  log k: 2.041
M. tuberculosis H37Rv [4]; [9]
  MIC: > 100 µg/mL

## CCCNc1nccnc1C(=O)NCC [Compound 19, N-Ethyl-3-(propylamino)pyrazine-2-carboxamide]
[2]; ratio to IC50 of 12
  IC50 (PET) fold higher than that of compound 12: 3.9 fold
[2]; [8]
  IC50: 2050 µM
[3]
  log k: 0.382
[7]
  MIC: 250 µM (≈ 52.1 µg/mL)
M. tuberculosis H37Rv [4]; [9]
  MIC: > 100 µg/mL

## CCCCCCNc1nccnc1C(=O)NCC [Compound 22, N-Ethyl-3-(hexylamino)pyrazine-2-carboxamide]
[6]
  MIC: 125 µM (≈ 31.3 µg/mL)
[2]; [8]
  IC50: 78 µM
[3]
  log k: 1.094
M. tuberculosis H37Rv [4]; [9]
  MIC: 50 µg/mL

## CCCNc1nccnc1C(=O)NC [Compound 11, N-Methyl-3-(propylamino)pyrazine-2-carboxamide]
[3]
  log k: 0.166
M. tuberculosis H37Rv [4]; [9]
  MIC: > 100 µg/mL
